Assay results reported in the NIST ThermoML archive (doi:10.1016/j.jct.2012.12.007).
± gives the expanded uncertainty stated by the source.

Conditions: 101.33 kPa, Liquid; for speed of sound: Sing-around technique in a fixed-path interferometer; for mass density: Vibrating tube method

Row | speed of sound (293.15 K) | mass density (293.15 K) | speed of sound (298.15 K) | mass density (298.15 K) | speed of sound (303.15 K) | mass density (303.15 K) | SMILES
1 | 1256.2 ± 0.7 m/s | 809.89 ± 0.12 kg/m3 | 1239.6 ± 0.7 m/s | 806.47 ± 0.12 kg/m3 | 1223.8 ± 0.7 m/s | 802.22 ± 0.12 kg/m3 | CCCCO [butan-1-ol]
2 | 1397.1 ± 1.2 m/s | 829.95 ± 0.24 kg/m3 | 1380.3 ± 1.2 m/s | 826.95 ± 0.24 kg/m3 | 1364.1 ± 1.2 m/s | 823.15 ± 0.24 kg/m3 | CCCCCCCCCCO [decan-1-ol]
3 | 1259.4 ± 1.2 m/s | 906.73 ± 0.23 kg/m3 | 1239.9 ± 1.2 m/s | 902.88 ± 0.23 kg/m3 | 1221.8 ± 1.2 m/s | 897.22 ± 0.23 kg/m3 | CCOCCOCCOCC [diethylene glycol diethyl ether]
4 | 1118 ± 1 m/s | 791.55 ± 0.12 kg/m3 | 1101.4 ± 0.6 m/s | 787.2 ± 0.12 kg/m3 | 1086.6 ± 0.6 m/s | 782.44 ± 0.12 kg/m3 | CO [methanol]
